Consider 30 compounds from patent publication US10208071B2, “Use of agonists of formyl peptide receptor 2 for treating ocular inflammatory diseases” (Allergan, Inc., priority 2013, dated 2019).

Structures are written as SMILES. Where two headings read alike, the source gives them in different places.

The target in this experiment is FPR2 (Homo sapiens (Human), UniProt P25090). The experiment in a line: FLIPR Ca+2 response, HEK-Gα16 cells stably expressing the human FPR2 receptor (Table 4). Particulars: for FPR2 (efficacy): efficacy in parentheses. Format: cell-based. In short, it runs like this: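 HEK-Gα16 cells stably expressing human FPR2, loaded with 2 μM Fluo-4 in HBSS/20 mM HEPES for 40 min at 37° C., then washed. Ligands added in HBSS/Hepes and Ca+2 responses recorded on FLIPR in relative fluorescence units.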
Chain of FPR2 (P25090 whole entry): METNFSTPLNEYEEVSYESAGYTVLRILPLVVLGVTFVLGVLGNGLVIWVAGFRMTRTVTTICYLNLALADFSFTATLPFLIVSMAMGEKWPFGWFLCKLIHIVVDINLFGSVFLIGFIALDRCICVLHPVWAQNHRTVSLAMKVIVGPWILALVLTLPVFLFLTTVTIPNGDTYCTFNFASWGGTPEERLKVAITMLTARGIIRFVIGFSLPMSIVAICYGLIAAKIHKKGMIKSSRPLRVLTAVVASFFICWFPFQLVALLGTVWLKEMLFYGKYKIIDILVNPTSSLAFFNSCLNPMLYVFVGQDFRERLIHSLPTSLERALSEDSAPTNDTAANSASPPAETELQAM

In the case of `CSc1ccc(NC(=O)Nc2ccc3c(c2)C(=O)N(CCc2c[nH]cn2)C(c2ccc(C#N)cc2)C3)cc1` (centres unmarked) [Compound 17, 1-{3-(4-cyanophenyl)-2-[2-(1H-imidazol-4-yl)ethyl]-1-oxo-1,2,3,4-tetrahydroisoquinolin-7-yl}-3-[4-(methylsulfanyl)phenyl]urea], the EC50 came out at 5.5 nM and the “FPR2 (efficacy)” value is on record as “nM (0.92)”. With `CC(C)C[C@H](NC(=O)Nc1ccc(Br)cc1)C(=O)N[C@H](C(N)=O)C(C)C` [Compound 92, (2S)-N-[(2S)-1-amino-3-methyl-1-oxobutan-2-yl]-2-{[(4-bromophenyl)carbamoyl]amino}-4-methylpentanamide], the EC50 came to 5.8 nM and the “FPR2 (efficacy)” value is reported as “nM (1.0)”. The like results for `CC(C)C[C@H](NC(=O)Nc1ccc(C(F)(F)F)cc1)C(=O)NC(C)(C)C(=O)O` [Compound 139, 2-methyl-2-{[(2S)-4-methyl-2-({[4-(trifluoromethyl)phenyl]carbamoyl}amino)pentanoyl]amino} propanoic acid] were, in that order, 2.5 nM and “nM (0.92)”. The like results for `CC(C)CC(C)(NC(=O)Nc1ccc(Br)cc1)C(=O)O` (centres unmarked) [Compound 110, 2-{[(4-bromophenyl)carbamoyl]amino}-2,4-dimethylpentanoic acid] were, in that order, 19.4 nM and “nM (0.98)”. For `CC1(CCc2cccc(O)c2)NC(=O)N(NC(=O)Nc2ccc(Br)cc2F)C1=O` (centres unmarked) [Compound 107, 1-(4-bromo-2-fluorophenyl)-3-{4-[2-(3-hydroxyphenyl)ethyl]-4-methyl-2,5-dioxoimidazolidin-1-yl}urea] the same measures were 2.2 nM and “nM (0.79)”. As to `CC(C)C1(C(C)C)NC(=O)N(NC(=O)Nc2ccc(Br)cc2)C1=O` [Compound 64, 1-(4-bromophenyl)-3-[2,5-dioxo-4,4-di(propan-2-yl)imidazolidin-1-yl]urea], the EC50 is 3.8 nM and the “FPR2 (efficacy)” value is recorded as “nM (1.0)”.

As for `O=C(Nc1ccc(Br)cc1)NN1C(=O)NC(C2CC2)(C2CC2)C1=O` [Compound 65, 1-(4-bromophenyl)-3-(4,4-dicyclopropyl-2,5-dioxoimidazolidin-1-yl)urea], the “FPR2 (efficacy)” value is given as “nM (1.0)”.

As to `CC(C)C1(CCc2ccccc2C(=O)O)NC(=O)N(NC(=O)Nc2ccc(Br)cc2)C1=O` (centres unmarked) [Compound 151, 2-{2-[1-{[(4-bromophenyl)carbamoyl]amino}-2,5-dioxo-4-(propan-2-yl)imidazolidin-4-yl]ethyl}benzoic acid], the EC50 stood at 5.8 nM and the “FPR2 (efficacy)” value is given as “nM (1.0)”. For `CC(C)C[C@H](NC(=O)Nc1ccc(Br)cc1)C(=O)NCC(N)=O` [Compound 77, (2S)-N-(2-amino-2-oxoethyl)-2-{[(4-bromophenyl)carbamoyl]amino}-4-methylpentanamide], the midpoint of the response, the EC50, lay at 1.1 nM and the “FPR2 (efficacy)” value is given as “nM (1.0)”. As to `CC(=O)CNC(=O)[C@H](Cc1ccccc1)NC(=O)Nc1ccc(Br)cc1F` [Compound 68, (2S)-2-{[(4-bromo-2-fluorophenyl)carbamoyl]amino}-N-(2-oxopropyl)-3-phenylpropanamide], the EC50 amounted to 12.4 nM and the “FPR2 (efficacy)” value is “nM (0.94)”. As for `CS(=O)(=O)c1ccc(NC(=O)Nc2ccc3c(c2)C(=O)N(CCc2c[nH]cn2)C(c2ccc(Cl)cn2)C3)cc1` (centres unmarked) [Compound 33, 1-{3-(5-chloropyridin-2-yl)-2-[2-(1H-imidazol-4-yl)ethyl]-1-oxo-1,2,3,4-tetrahydroisoquinolin-7-yl}-3-[4-(methylsulfonyl)phenyl]urea], the “FPR2 (efficacy)” value is given as “nM (0.99)”.

For the compound `CC(C)C[C@H](NC(=O)Nc1ccc(C(F)(F)F)cc1)C(=O)NCS(=O)(=O)O` [Compound 237, {[(2S)-4-methyl-2-({[4-(trifluoromethyl)phenyl]carbamoyl}amino)pentanoyl]amino} methanesulfonic acid], the EC50 was determined as 1.9 nM and the “FPR2 (efficacy)” value is on record as “nM (0.99)”.

Take `CS(=O)(=O)c1ccc(NC(=O)Nc2ccc3c(c2)C(=O)N(CCCN)C(c2ccc(C#N)cc2)C3)cc1` (centres unmarked) [Compound 18, 1-[2-(3-aminopropyl)-3-(4-cyanophenyl)-1-oxo-1,2,3,4-tetrahydroisoquinolin-7-yl]-3-[4-(methylsulfonyl)phenyl]urea]: the “FPR2 (efficacy)” value was “nM (0.86)”. For `CC(C)C[C@H](NC(=O)Nc1ccc(Br)cc1F)C(=O)NCC(N)=O` [Compound 84, (2S)-N-(2-amino-2-oxoethyl)-2-{[(4-bromo-2-fluorophenyl)carbamoyl]amino}-4-methylpentanamide], the EC50 was 4.5 nM and the “FPR2 (efficacy)” value was “nM (0.95)”. In the case of `NC(=O)C1C(C(=O)Nc2ccc(Br)cc2)C2CCC1C21CC1` (centres unmarked) [Compound 30, N-(4-bromophenyl) spiro[bicyclo[2.2.1]heptane-7,1′-cyclopropane]-2,3-dicarboxamide], the midpoint of the response, the EC50, lay at 2.5 nM and the “FPR2 (efficacy)” value is given as “nM (0.96)”. `CS(=O)(=O)c1ccc(NC(=O)Nc2ccc3c(c2)C(=O)N(CCc2c[nH]cn2)C(c2ccc(C#N)cc2)C3)cc1` (centres unmarked) [Compound 19, 1-{3-(4-cyanophenyl)-2-[2-(1H-imidazol-4-yl)ethyl]-1-oxo-1,2,3,4-tetrahydroisoquinolin-7-yl}-3-[4-(methylsulfonyl)phenyl]urea]: the “FPR2 (efficacy)” value is recorded as “nM (1.00)”.

Regarding `O=C(O)[C@@H]1C2CCC([C@@H]1C(=O)Nc1ccc(Br)cc1)C21CC1` (relative stereo) [Compound 14, rel-(2R,3S)-3-[(4-bromophenyl)carbamoyl] spiro[bicyclo[2.2.1]heptane-7,1′-cyclopropane]-2-carboxylic acid], the EC50 is 4 nM and the “FPR2 (efficacy)” value is “nM (0.90)”. `CC(C)C[C@H](NC(=O)Nc1ccc(Br)cc1)C(=O)NC(C)(C)C(=O)O` [Compound 6, 2-{[(2S)-2-{[(4-bromophenyl)carbamoyl]amino}-4-methylpentanoyl]amino}-2-methylpropanoic acid]: the “FPR2 (efficacy)” value is “(0.91)”. A half-maximal response (unit inferred) (EC50) required 1.66 nM. Turning to `CC(C)C[C@H](NC(=O)Nc1ccc(Br)cc1)C(=O)NCS(=O)(=O)O` [Compound 127, {[(2S)-2-{[(4-bromophenyl)carbamoyl]amino}-4-methylpentanoyl]amino} methanesulfonic acid], the response was half-maximal at 2 nM (EC50) and the “FPR2 (efficacy)” value was “nM (0.91)”. On to `CC1(CCc2ccccc2O)NC(=O)N(NC(=O)Nc2ccc(Br)cc2F)C1=O` (centres unmarked) [Compound 106, 1-(4-bromo-2-fluorophenyl)-3-{4-[2-(2-hydroxyphenyl)ethyl]-4-methyl-2,5-dioxoimidazolidin-1-yl}urea], for which the EC50 was found to be 4 nM and the “FPR2 (efficacy)” value is on record as “nM (0.91)”.

On to `CCOP(=O)(CCNC(=O)CC1(C(C)C)NC(=O)N(NC(=O)Nc2ccc(Br)cc2)C1=O)OCC` (centres unmarked) [Compound 152, diethyl [2-({[1-{[(4-bromophenyl)carbamoyl]amino}-2,5-dioxo-4-(propan-2-yl)imidazolidin-4-yl]acetyl}amino)ethyl] phosphonate], for which the EC50 amounted to 11 nM and the “FPR2 (efficacy)” value is on record as “nM (1.0)”. For `CC(C)C1(CC(=O)NC(CO)CO)NC(=O)N(NC(=O)Nc2ccc(Br)cc2)C1=O` (centres unmarked) [Compound 142, 2-[1-{[(4-bromophenyl)carbamoyl]amino}-2,5-dioxo-4-(propan-2-yl)imidazolidin-4-yl]-N-(1,3-dihydroxypropan-2-yl)acetamide], the EC50 stood at 13.8 nM and the “FPR2 (efficacy)” value is “nM (0.92)”.

Take `CS(=O)(=O)c1ccc(NC(=O)Nc2ccc3c(c2)C(=O)N(CCc2c[nH]cn2)C(c2ccc(F)cn2)C3)cc1` (centres unmarked) [Compound 25, 1-{3-(5-fluoropyridin-2-yl)-2-[2-(1H-imidazol-4-yl)ethyl]-1-oxo-1,2,3,4-tetrahydroisoquinolin-7-yl}-3-[4-(methylsulfonyl)phenyl]urea]: the “FPR2 (efficacy)” value is on record as “nM (1.0)”. As for `C[S+]([O-])c1ccc(NC(=O)Nc2ccc3c(c2)C(=O)N(CCCN)[C@@H](c2ccc(C#N)cc2)C3)cc1` (stereo partly drawn) [Compound 41, (+) 1-[(3R)-2-(3-aminopropyl)-3-(4-cyanophenyl)-1-oxo-1,2,3,4-tetrahydroisoquinolin-7-yl]-3-[4-(methylsulfinyl)phenyl]urea], the “FPR2 (efficacy)” value is “nM (0.94)”. With `CCC(CC)(NC(=O)Nc1ccc(Br)cc1)C(=O)NCC(=O)O` [Compound 113], a half-maximal effect (EC50) was put at 18.7 nM and the “FPR2 (efficacy)” value is “nM (1.0)”. As to `CC1(CCc2cccc(F)c2)NC(=O)N(NC(=O)Nc2ccc(Br)cc2)C1=O` (centres unmarked) [Compound 83, 1-(4-bromophenyl)-3-{4-[2-(3-fluorophenyl)ethyl]-4-methyl-2,5-dioxoimidazolidin-1-yl}urea], the “FPR2 (efficacy)” value is listed as “nM (1.0)”.

Take `CC(C)C[C@H](NC(=O)Nc1ccc(C(F)(F)F)cc1)C(=O)NCC(=O)O` [Compound 124, {[(2S)-4-methyl-2-({[4-(trifluoromethyl)phenyl]carbamoyl}amino)pentanoyl]amino}acetic acid]: the “FPR2 (efficacy)” value was “nM (1.0)”. Regarding `CCOP(=O)(CCNC(=O)[C@H](CC(C)C)NC(=O)Nc1ccc(Br)cc1)OCC` [Compound 119, diethyl (2-{[(2S)-2-{[(4-bromophenyl)carbamoyl]amino}-4-methylpentanoyl]amino}ethyl) phosphonate], a half-maximal response (EC50) required 16.1 nM.

Take `CC(C)C[C@H](NC(=O)Nc1ccc(Br)cc1)C(=O)N[C@H](C)CO` [Compound 96, (2S)-2-{[(4-bromophenyl)carbamoyl]amino}-N-[(2R)-1-hydroxypropan-2-yl]-4-methylpentanamide]: the “FPR2 (efficacy)” value was “nM (1.0)”. As for `CC(C)C1(CC(=O)NCCC(=O)O)NC(=O)N(NC(=O)Nc2ccc(Br)cc2)C1=O` (centres unmarked) [Compound 147, 3-({[1-{[(4-bromophenyl)carbamoyl]amino}-2,5-dioxo-4-(propan-2-yl)imidazolidin-4-yl]acetyl}amino)propanoic acid], the EC50 came out at 3.9 nM and the “FPR2 (efficacy)” value is recorded as “nM (0.99)”.

Usually EC50 stands for the concentration at which the effect is half-maximal. Low readings indicate a more potent agent, high ones a less potent agent.
